Source: patent US20090203685A1, “ANTI-PROLIFERATIVE COMPOUNDS FROM A 3-ARYL-COUMARINE OR 3-ARYL-QUINOLIN-2-ONE AND USES THEREOF” (EOS (ETHICAL ONCOLOGY SCIENCE) S.P.A., priority 2006, published 2009)

Tests used:
[1] = Viability (propidium iodide staining), NCI-H460; type: cell-based; details: human, NCI-H460 cells (lung), NCI-H460 lung (NSCLC), 500 nM
Protocol: Propidium iodide (PI) cannot normally cross the cell membrane; it is thus excluded by viable cells but not from dying or dead cells, having a damaged membrane, where it intercalates into double-stranded nucleic acids and fluoresces when excited at 488 nm.
The cells are pelleted by gentle centrifugation 1200 rpm/5 min/4° C., then the supernatant is discarded and replaced by 1 mL of fresh medium. One hundred microliters of propidium iodide (40 μg/mL) are added to 400 μL of the cell suspension in a FACS tube and viability is measured by flow cytometry as the percentage of cells whose fluorescence recorded on FL-3 channel is comprised between 0 and 2.
Viability and cell cycle profile, tested with compound (01), at 500 nM: […]

[2] = molecular target: T1, interaction between 6×His-Bcl-xL and GST-BF8 (Homo sapiens, UniProt Q07817); assay: Pull down assay, Bcl-xL/BF8 in vitro interaction; type: binding; details: 50 μM, 5% DMSO; Western blot
T1 construct: made in house; host or cells: E. coli
T1 sequence (Q07817 whole entry): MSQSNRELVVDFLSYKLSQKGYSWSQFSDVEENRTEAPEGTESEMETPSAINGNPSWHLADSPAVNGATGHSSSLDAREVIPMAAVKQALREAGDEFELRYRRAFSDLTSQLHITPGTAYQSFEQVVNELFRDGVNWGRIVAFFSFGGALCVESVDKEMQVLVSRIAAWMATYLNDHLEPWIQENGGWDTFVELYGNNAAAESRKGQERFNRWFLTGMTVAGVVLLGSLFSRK
Protocol: FIG. 3: Inhibition of the interaction between Bcl-xL and BF8, a peptide aptamer that targets the hydrophobic groove of BCL-2 family members. […]
C+: 6×His-Bcl-xL captured by GST-BF8, in presence of 5% DMSO. (02): 6×His-Bcl-xL captured by GST-BF8, in presence of 50 μM of compound 02 (in 5% DMSO). (01): 6×His-Bcl-xL captured by GST-BF8, in presence of 50 μM of compound 01 (in 5% DMSO).
A peptide aptamer (dubbed BF8) has been selected against the anti-apoptotic protein Bfl1, member of the BCL-2 family. […] Two lines of evidence indicate that BF8 binds the hydrophobic groove of anti-apoptotic BCL-2-like proteins. First, the amino-acid sequence of its variable region bears similarities with the sequence of the BH3 domains of pro-apoptotic members of the BCL-2 family (such as Bak or Bax), known to bind the anti-apoptotic proteins via this hydrophobic groove. Second, BF8 no longer binds a mutated variant of Bfl-1 that bears an amino-acid substitution within the said hydrophobic groove.
A Bcl-xL/BF8 in vitro interaction assay was developed to examine the capacity of the compounds of the invention to disrupt this interaction by competition with the peptide aptamer. 6×His-Bcl-xL and GST-BF8 recombinant fusion proteins were expressed in E. coli and purified using affinity chromatography. […]

[3] = test system: human lung cancer NCI-H460 cells (NSCLC); assay: Inhibition of tumor growth in vivo, NCI-H460 xenograft; set-up: species or system Swiss nude mice
Protocol: FIG. 2: Inhibition of tumor growth in vivo.
This graph represents the growth of tumor size (by reference to the initial size of the tumor) grafted to mice receiving different treatments during 15 days.
Rhombus: evolution of the growth of the tumor measured in mice receiving the vehicle (without active ingredient) intra-peritoneally (2QD)
Triangle: evolution of the growth of the tumor measured in mice receiving the compound (01) intra-peritoneally at a dosage of 18 mg/kg (2QD).
Circle: evolution of the growth of the tumor measured in mice receiving taxol intra-peritoneally at 8 mg/kg (Q3D×5; d1; d4; d7; d10; d13).
Cross: evolution of the growth of the tumor measured in mice receiving a combination of compound (01) at a dosage of 18 mg/kg 2QD and taxol at a dosage of 8 mg/kg Q3D×5 intra-peritoneally.
For this experiment, Swiss nude mice received a subcutaneous xenograft of 5×10^6 human lung cancer NCI-H460 cells (NSCLC). The percentage of growth of the tumor size versus tumor size at the beginning of treatment is plotted during 15 days for mice receiving four different treatments (12 mice per group of treatment).
The first treatment corresponds to a control. The mice were given the vehicule intra-peritoneally, 2QD.
Composition of the vehicule: 10% DMSO; 10% PEG-400; 30% (EtOH/Cremophor (1/2)); 50% sterile water.
The second treatment corresponds to the administration of a compound of the invention, compound (01), at a dosage of 18 mg/kg 2QD.
The third treatment corresponds to the administration of Taxol at a dosage of 8 mg/kg Q3D×5; d1; d4; d7; d10; d13.
The fourth treatment corresponds to the administration of a combination of compound (01) at a dosage of 18 mg/kg 2QD and of Taxol at a dosage of 8 mg/kg Q3D×5.

SMILES: COc1cc(NC(=S)NC(=O)/C=C/c2ccco2)ccc1-c1cc2ccccc2oc1=O [Compound 01, (2E)-3-(2-furyl)-N-({[3-methoxy-4-(2-oxo-2H-chromen-3-yl)phenyl]amino}carbonothioyl)acrylamide]
- viability at 48 h, 0.5 µM ([1]; 48 h): 80%
- viability at 72 h, 0.5 µM ([1]; 72 h): 80%
- Inhibition of the in vitro interaction between 6×His-Bcl-xL and GST-BF8 [2]: inhibit
- Growth of lung tumor xenograft ([3]; 18 mg/kg 2QD intra-peritoneally, 15 days): inhibits the growth
- Dose dependence of the tumor growth inhibition ([3]; NCI-H460 xenograft): dose-dependent
- Efficacy in reducing the tumour growth when combined with taxol ([3]; compound (01) 18 mg/kg 2QD plus taxol 8 mg/kg Q3D×5, intra-peritoneally): enhanced
